Measured values taken from patent publication US8614218B2, “Fused bicyclic pyrimidines” (Bayer Intellectual Property GmbH, priority 2007, dated 2013).

System: A549 cells
Experiment: Cellular proliferation/cytotoxicity assay (Alamar Blue), A549
Format: cell-based
Details: Homo sapiens, 72 h, Alamar Blue (Resazurin), read-out: Anti-proliterative/Cytotoxic activity (A549 cells)
Description: Cellular Proliferation/Cytotoxicity Assay:
The anti-proliferative activity of the compounds as described herein, is evaluated using the OvCAR3, HCT116 and A549 cell lines and the Alamar Blue (Resazurin) cell viability assay (O'Brien et al. Eur J Biochem 267, 5421-5426, 2000). Resazurin is reduced to the fluorescent resorufin by cellular dehydrogenase activity, correlating with viable, proliferating cells. Test compounds are dissolved as 10 mM solutions in DMSO and subsequently diluted. Cells like HCT116 or A549 cells were seeded into 96 well flat bottom plates at a density of 10000 cells/well (OvCAR3 cells), 1000 cells/well (HCT116 cells) or 2000 cells/well (A549 cells) in a volume of 200 μl/well. 24 hours after seeding, 1 μl each of the compound dilutions are added into each well of the 96 well plates. Each compound dilution is tested as at least as duplicates. Wells containing untreated control cells were filled with 200 μl DMEM (Dulbecco's Modified Eagle Medium) containing 0.5 vol % v:v DMSO. The cells are then incubated with the substances for 72 h at 37° C. in a humidified atmosphere containing 5 vol % CO2. To determine the viability of the cells, 20 μl of a Resazurin solution (90 mg/l) are added. After 4 h incubation at 37° C., the fluorescence is measured by extinction at λ=544 nm and an emission of λ=590 nm (Wallac Victor2; Perkin Elmer, USA). For the calculation of the cell viability, the emission value from untreated cells is set as 100% viability and the fluorescence intensity of treated cells are set in relation to the values of untreated cells. Viabilities are expressed as % values. The corresponding IC50 values of the compounds for cytotoxic activity are determined from the concentration-effect curves by means of non-linear regression. The analysis of the data is performed using a biostatistical program (GraphPad Prism, USA).
Representative IC50 values for anti-proliferative/cytotoxic potency determined in the aforementioned assay follow from the following table, in which the numbers of the compound correspond to the numbers of the examples.

Row | SMILES | IC50 [µM]
1 | Cc1nc2nc(-c3ccc(CN4CCC(c5n[nH]c(-c6ccccn6)n5)CC4)cc3)c(-c3ccccc3)c(N(C)C)n2n1 [Example 64, N,N,2-Trimethyl-6-phenyl-5-(4-{[4-(5-pyridin-2-yl-1H-1,2,4-triazol-3-yl)piperidin-1-yl]methyl}phenyl)[1,2,4]triazolo[1,5-a]pyrimidin-7-amine] | < 10
2 | c1ccc(-c2cn3nccc3nc2-c2ccc(CN3CCC(c4nc(-c5ncccn5)n[nH]4)CC3)cc2)cc1 [Example 69, 6-Phenyl-5-(4-{[4-(3-pyrimidin-2-yl-1H-1,2,4-triazol-5-yl)piperidin-1-yl]methyl}phenyl)pyrazolo[1,5-a]pyrimidine] | > 10
3 | C#Cc1nc2nc(-c3ccc(CN4CCC(c5n[nH]c(-c6ccccn6)n5)CC4)cc3)c(-c3ccccc3)cn2n1 [Example 53, 2-Ethynyl-6-phenyl-5-(4-{[4-(5-pyridin-2-yl-1H-1,2,4-triazol-3-yl)piperidin-1-yl]methyl}phenyl)[1,2,4]triazolo[1,5-a]pyrimidine] | < 10
4 | NC(=O)c1cc2nc(-c3ccc(CN4CCC(c5n[nH]c(-c6ccccn6)n5)CC4)cc3)c(-c3ccccc3)cn2n1 [Example 78, 6-Phenyl-5-(4-{[4-(5-pyridin-2-yl-1H-1,2,4-triazol-3-yl)piperidin-1-yl]methyl}phenyl)pyrazolo[1,5-a]pyrimidine-2-carboxamide] | > 10
5 | Nc1nc2nc(-c3ccc(CN4CCC(c5n[nH]c(-c6ccccn6)n5)CC4)cc3)c(-c3ccccc3)cn2n1 [Example 67, 6-Phenyl-5-(4-{[4-(5-pyridin-2-yl-1H-1,2,4-triazol-3-yl)piperidin-1-yl]methyl}phenyl)[1,2,4]triazolo[1,5-a]pyrimidin-2-amine] | < 10
6 | Cc1cccc(-c2n[nH]c(C3CCN(Cc4ccc(-c5nc6ccnn6cc5-c5ccccc5)cc4)CC3)n2)n1 [Example 75, 5-[4-({4-[3-(6-Methylpyridin-2-yl)-1H-1,2,4-triazol-5-yl]piperidin-1-yl}methyl)phenyl]-6-phenylpyrazolo[1,5-a]pyrimidine] | < 10
7 | Cc1nc2nc(-c3ccc(CN4CCC(c5cc(-c6ccccn6)n[nH]5)CC4)cc3)c(-c3ccccc3)cn2n1 [Example 46, 2-Methyl-6-phenyl-5-(4-{[4-(3-pyridin-2-yl-1H-pyrazol-5-yl)piperidin-1-yl]methyl}phenyl)[1,2,4]triazolo[1,5-a]pyrimidine] | > 10
8 | c1ccc(-c2cn3ccnc3nc2-c2ccc(CN3CCC(c4nc(-c5ccc[nH]5)n[nH]4)CC3)cc2)cc1 [Example 68, 6-Phenyl-7-[4-({4-[3-(1H-pyrrol-2-yl)-1H-1,2,4-triazol-5-yl]piperidin-1-yl}methyl)phenyl]imidazo[1,2-a]pyrimidine] | < 10
9 | CNc1nc2nc(-c3ccc(CN4CCC(c5n[nH]c(-c6ccccn6)n5)CC4)cc3)c(-c3ccccc3)cn2n1 [Example 65, N-Methyl-6-phenyl-5-(4-{[4-(5-pyridin-2-yl-1H-1,2,4-triazol-3-yl)piperidin-1-yl]methyl}phenyl)[1,2,4]triazolo[1,5-a]pyrimidin-2-amine] | < 10
10 | c1ccc(-c2cn3nccc3nc2-c2ccc(CN3CCC(c4cc(-c5ccccn5)n[nH]4)CC3)cc2)cc1 [Example 76, 6-Phenyl-5-(4-{[4-(3-pyridin-2-yl-1H-pyrazol-5-yl)piperidin-1-yl]methyl}phenyl)pyrazolo[1,5-a]pyrimidine] | > 10
11 | FC(F)(F)c1nc2nc(-c3ccc(CN4CCC(c5n[nH]c(-c6ccccn6)n5)CC4)cc3)c(-c3ccccc3)cn2n1 [Example 63, 6-Phenyl-5-(4-{[4-(5-pyridin-2-yl-1H-1,2,4-triazol-3-yl)piperidin-1-yl]methyl}phenyl)-2-(trifluoromethyl)[1,2,4]triazolo[1,5-a]pyrimidine] | > 10
12 | Cc1nc2nc(-c3ccc(CN4CCC(c5n[nH]c(-c6nccs6)n5)CC4)cc3)c(-c3ccccc3)cn2n1 [Example 43, 2-Methyl-6-phenyl-5-[4-({4-[5-(1,3-thiazol-2-yl)-1H-1,2,4-triazol-3-yl]piperidin-1-yl}methyl)phenyl][1,2,4]triazolo[1,5-a]pyrimidine] | < 10
